Measured values published in ChEMBL document CHEMBL6071156 (Eur J Med Chem, 2024).
Activity calls are given as the source filed them. The calls are words filed in the database; no cut-off is given here.

Assays:
[1] = test system: Chikungunya virus; assay: Antiviral activity against CHIKV S27 in green monkey Vero 76 cells assessed as reduction in virus-induced cytopathic effect; assay type: functional, organism-based; details: S27, Vero 76
[2] = Cytotoxicity against green monkey Vero 76 cells assessed as reduction in cell viability; assay type: toxicity, cell-based; details: chlorocebus sabaeus
[3] = Selective index, ratio of ratio of CC50 for cytotoxicity against green monkey Vero 76 cells to EC50 for antiviral activity against CHIKV S27 in green monkey Vero 76 cells assessed as reduction; assay type: toxicity, cell-based; details: read-out: Selectivity Index
[4] = target: Polyprotein P1234 (Chikungunya virus (strain S27-African prototype) (CHIKV)) (UniProt Q8JUX6); details: dose 0.27-600 µM, time 2000-8000 sec
[5] = target: Polyprotein P1234 (Chikungunya virus (strain S27-African prototype) (CHIKV)) (UniProt Q8JUX6); details: dose 0.27-600 µM
[6] = target: Polyprotein P1234 (Chikungunya virus (strain S27-African prototype) (CHIKV)) (UniProt Q8JUX6)
[7] = Metabolic stability in human liver microsomes assessed as intrinsic clearance by HPLC-MS/MS analysis; assay type: ADME, Microsome
[8] = Metabolic stability in CD-1 mouse liver microsomes assessed as half life by HPLC-MS/MS analysis; assay type: ADME, Microsome
[9] = Metabolic stability in human liver S9 fraction assessed as intrinsic clearance by HPLC-MS/MS analysis; assay type: ADME, subcellular
[10] = Metabolic stability in human liver S9 fraction assessed as half life by HPLC-MS/MS analysis; assay type: ADME, subcellular
[11] = test system: Chikungunya virus; assay: Antiviral activity against CHIKV S27 in green monkey Vero 76 cells assessed as reduction in virus yield measured after 3 days by Virus yield reduction assay; assay type: functional; details: S27, Vero 76, 72 h, time 3 day
[12] = test system: Chikungunya virus; assay: Antiviral activity against CHIKV infected in C57BL/6 mouse assessed as mouse survival at 300 mg/kg/day, ip measured after 6 days post infection after 4 hrs of last treatment; assay type: functional, organism-based; details: time 6.0 day
[13] = test system: Chikungunya virus; assay: Antiviral activity against CHIKV infected in C57BL/6 mouse assessed as footpad swelling at 300 mg/kg/day, ip measured after 6 days post infection presence of compound (reference value: 40.9+/-12.4); assay type: functional; details: time 6 day
[14] = test system: Chikungunya virus; assay: Antiviral activity against CHIKV infected in C57BL/6 mouse model assessed as virus titers at 100 mg/kg/day, ip measured after 6 days post infection presence of compound (reference value: 5.3+/0.3); assay type: functional; details: time 6 day

Sequence of Polyprotein P1234 (Chikungunya virus (strain S27-African prototype) (CHIKV)) (Q8JUX6 whole entry): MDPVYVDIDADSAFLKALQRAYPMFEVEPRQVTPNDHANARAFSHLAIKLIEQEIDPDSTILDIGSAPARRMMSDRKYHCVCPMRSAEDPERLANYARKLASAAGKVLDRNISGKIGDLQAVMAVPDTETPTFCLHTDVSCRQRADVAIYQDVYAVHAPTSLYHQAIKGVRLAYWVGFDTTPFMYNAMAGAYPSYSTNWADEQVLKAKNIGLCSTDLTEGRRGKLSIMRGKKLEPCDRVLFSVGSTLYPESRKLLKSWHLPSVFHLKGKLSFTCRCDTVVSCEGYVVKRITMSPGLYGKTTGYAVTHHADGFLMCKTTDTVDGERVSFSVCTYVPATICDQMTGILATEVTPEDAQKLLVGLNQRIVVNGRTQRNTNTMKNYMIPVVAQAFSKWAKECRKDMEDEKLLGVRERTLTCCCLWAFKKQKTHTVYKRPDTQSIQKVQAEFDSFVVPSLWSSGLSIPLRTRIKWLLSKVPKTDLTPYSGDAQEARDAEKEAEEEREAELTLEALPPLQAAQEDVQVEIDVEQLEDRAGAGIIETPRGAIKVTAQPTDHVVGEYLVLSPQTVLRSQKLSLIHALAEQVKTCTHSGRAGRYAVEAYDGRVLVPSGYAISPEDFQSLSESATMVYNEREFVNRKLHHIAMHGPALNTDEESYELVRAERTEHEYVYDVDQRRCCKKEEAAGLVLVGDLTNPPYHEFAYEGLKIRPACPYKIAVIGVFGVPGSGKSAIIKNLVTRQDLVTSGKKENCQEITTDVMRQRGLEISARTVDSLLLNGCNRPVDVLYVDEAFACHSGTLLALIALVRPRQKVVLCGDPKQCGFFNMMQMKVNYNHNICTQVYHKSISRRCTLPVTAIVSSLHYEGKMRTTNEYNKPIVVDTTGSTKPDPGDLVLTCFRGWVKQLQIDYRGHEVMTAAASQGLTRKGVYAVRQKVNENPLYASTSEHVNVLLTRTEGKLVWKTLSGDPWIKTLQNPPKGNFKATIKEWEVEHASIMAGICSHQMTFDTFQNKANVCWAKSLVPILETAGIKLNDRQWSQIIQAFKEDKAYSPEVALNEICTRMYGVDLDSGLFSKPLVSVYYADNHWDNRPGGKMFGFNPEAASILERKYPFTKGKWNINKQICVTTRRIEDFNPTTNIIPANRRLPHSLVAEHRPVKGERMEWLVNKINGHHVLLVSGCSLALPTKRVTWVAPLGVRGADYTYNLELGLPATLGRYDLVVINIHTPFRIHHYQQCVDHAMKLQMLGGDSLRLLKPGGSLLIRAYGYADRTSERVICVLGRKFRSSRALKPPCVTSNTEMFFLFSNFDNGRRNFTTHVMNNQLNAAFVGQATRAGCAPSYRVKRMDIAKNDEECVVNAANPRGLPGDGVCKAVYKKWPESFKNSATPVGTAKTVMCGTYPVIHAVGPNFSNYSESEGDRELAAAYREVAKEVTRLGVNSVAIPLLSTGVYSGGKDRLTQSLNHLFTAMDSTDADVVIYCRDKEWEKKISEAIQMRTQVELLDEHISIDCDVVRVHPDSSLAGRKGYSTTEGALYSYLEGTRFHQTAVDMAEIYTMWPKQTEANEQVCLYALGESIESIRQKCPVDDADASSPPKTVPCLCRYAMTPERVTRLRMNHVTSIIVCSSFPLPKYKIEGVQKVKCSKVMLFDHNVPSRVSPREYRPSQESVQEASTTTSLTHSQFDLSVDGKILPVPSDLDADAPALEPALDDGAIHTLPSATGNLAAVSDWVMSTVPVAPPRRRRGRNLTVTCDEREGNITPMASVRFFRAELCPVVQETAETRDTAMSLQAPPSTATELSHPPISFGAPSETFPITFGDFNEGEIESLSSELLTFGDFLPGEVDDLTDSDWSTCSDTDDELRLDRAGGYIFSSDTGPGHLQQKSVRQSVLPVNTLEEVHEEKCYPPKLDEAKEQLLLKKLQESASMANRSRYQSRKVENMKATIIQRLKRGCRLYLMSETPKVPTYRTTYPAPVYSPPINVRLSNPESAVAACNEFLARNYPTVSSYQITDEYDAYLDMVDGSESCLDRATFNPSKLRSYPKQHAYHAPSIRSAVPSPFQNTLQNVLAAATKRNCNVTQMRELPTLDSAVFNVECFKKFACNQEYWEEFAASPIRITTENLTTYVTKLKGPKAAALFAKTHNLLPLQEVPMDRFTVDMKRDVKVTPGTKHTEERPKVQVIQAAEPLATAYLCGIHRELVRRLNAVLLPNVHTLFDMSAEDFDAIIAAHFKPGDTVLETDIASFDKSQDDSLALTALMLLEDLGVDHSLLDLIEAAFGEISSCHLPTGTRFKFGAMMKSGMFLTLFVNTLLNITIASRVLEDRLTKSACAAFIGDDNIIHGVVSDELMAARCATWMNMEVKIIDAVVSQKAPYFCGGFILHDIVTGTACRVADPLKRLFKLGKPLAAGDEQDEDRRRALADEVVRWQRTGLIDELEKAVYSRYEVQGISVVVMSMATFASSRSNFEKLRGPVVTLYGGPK

For CC1CCc2cccc(C(=O)NC/C=C/S(C)(=O)=O)c2N1 (stereo not given), the EC50 [1] was 0.23 µM, the CC50 [2] was > 50 µM and the selectivity ratio [3] was > 220. The TDI [4] was “Active”, the inhibition [5] was “Dose-Dependent Effect” and the Ratio (10^-6 microM/s) [6] was 35.8. The CLH [7] was < 57.8 µL/min/mg, the t1/2 [8] was 1.356 h and the CLH [9] was < 19.3 µL/min/mg. For the same molecule, the t1/2 [10] was > 2 h and the EC90 [11] was 1.5 µM.

With CC1CC(C)(C)Nc2c(C(=O)NC/C=C/S(C)(=O)=O)cccc21 (stereo not given) the EC50 [1] was 25 µM, the CC50 [2] was > 50 µM and the selectivity ratio [3] was > 2.

Molecule COC(=O)/C=C/CNC(=O)c1c[nH]c2ccc(Br)cc12 has an EC50 [1] of 3.1 µM and a CC50 [2] of 16 µM.

With COC(=O)/C=C/CNC(=O)c1cccc2c1NC(C)(C)C=C2C the EC50 [1] was > 22 µM and the CC50 [2] was > 22 µM.

With COC(=O)/C=C/CNC(=O)c1cccc2cccnc12 the EC50 [1] was > 50 µM and the CC50 [2] was > 50 µM.

In the case of NC(=O)c1nc(F)cnc1O, the Survival [12] is reported as “Active”, the Activity [13] is reported as 32.6% and the Activity [14] is reported as 5.1.

In the case of CS(=O)(=O)/C=C/[C@H](Cc1ccccc1)NC(=O)c1cccc2cccnc12, the EC50 [1] is reported as > 50 µM and the CC50 [2] is reported as > 50 µM.

With CC1=CC(C)(C)Nc2c(C(=O)N[C@@H](C)/C=C/S(C)(=O)=O)cccc21 the EC50 [1] was 4.4 µM, the CC50 [2] was > 50 µM and the selectivity ratio [3] was > 11.

For COC(=O)/C=C/CNC(=O)c1cccc2c1NCCC2, the EC50 [1] was > 50 µM and the CC50 [2] was > 50 µM.

CC1=CC(C)(C)Nc2c(C(=O)NC/C=C/S(C)(=O)=O)cccc21 gave an EC50 [1] of 23 µM and a CC50 [2] of 39 µM.

In the case of COC(=O)/C=C/CNC(=O)c1ccccc1Nc1ccccc1, the EC50 [1] is reported as > 38 µM and the CC50 [2] is reported as 38 µM.

In the case of COC(=O)/C=C/CNC(=O)c1cc(C)cc2c1NC(C)(C)C=C2C, the EC50 [1] is reported as > 43 µM and the CC50 [2] is reported as > 43 µM.

In the case of COC(=O)CCCNC(=O)c1cccc2c1NC(C)(C)CC2C (stereo not given), the EC50 [1] is reported as > 50 µM and the CC50 [2] is reported as > 50 µM.

For COC(=O)/C=C/CNC(=O)c1cccc2ccc(C)nc12, the EC50 [1] was > 34 µM and the CC50 [2] was 34 µM.
